Results as given in patent US20030134779A1, “Method and composition for treatment and/or prevention of antibiotic-resistant microorganism infections” (priority 2002, published 2003).
Where two headings read alike, the source gives them in different places.

Legend:
Assay in all cases: MIC of penicillin G alone or with bovine LF, macrodilution
S. aureus ATCC 25923 = assay type: cell-based; settings: Staphylococcus aureus, strain β-lactamase type −, read-out: MICs of penicillin G
Text: (§1) Staphylococcus aureus strains ATCC 25923 and 6538 and Escherichia coli ATCC 25922 were obtained from the American Type Culture Collection. Eight bovine mastitis clinical isolates of S. aureus (SHY97-3906, -3923, -4085 -4242, -4320 and -4343, RFT-1 and RFT-5) and one isolate of E. coli SHY97-3923-2 and one isolate of Kiebsiella pneumoniae SHY99-723-1 were kindly provided by the Laboratoire Provincial de Pathologie Animale of St-Hyacinthe and of Rock-Forest (Quebec, Canada), respectively. Nine β-lactam antibiotics resistant S. aureus strains (PC-1, NCTC 9789, 2076, 22260, ST79/741, 3804, RN9, FAR8, and FAR10) were obtained from Vanderbilt University School of Medicine (Nashville, Tenn., USA). All the culture media were from Difco Laboratories (Detroit, Mich.). Bacteria from frozen stock at −80° C. were streaked onto tryptic soy agar plates suplemented with 5% of defibrinated sheep blood (Quelab, Montreal, QC, Canada) or Brain Heart infusion agar plates. Plates were then incubated for 16 to 24 h at 37° C. For most experiments, the strains were subcultured onto Mueller Hinton agar plates (MHA) or broth (MHB) for an additional 16-20 h. Aqueous solutions of the tested products were added by filtration through a sterile filter assembly (pore size 0.2 μm, Fisher, Ottawa, Ontario).
(§2) The MICs were determined by both macrodilution (1 ml/tube) and microdilution (100 μl/well) in sterile 96 well microtiter plates (International Nunc, Napierville, Ill.) techniques in three separate experiments according to the National Committee for Clinical Laboratory Standards (1992 and 1999) in three separate experiments. Serial 2-fold dilutions in MHB of LF, LFC, antibiotic or combination of LF or LFC with antibiotic were inoculated with an overnight culture at a final inoculum of 10^6 cfu/ml in MHB. Effect of LF combination with antibiotic on MICs were determined by adding 0.5 mg or 1 mg/ml of LF to each antibiotic dilution. The MIC was defined as the lowest concentration of drug (highest dilution) that caused a complete inhibition of bacterial growth after an incubation of 18 h. Effect of LF or LFC combination with antibiotic on MIC was also determined by checkerboard method using 96 well microtiter plates. Each antibiotic dilution (50 μl) was serially added to the wells in vertical rows starting from the top (lower dilution) to the bottom. Lactoferrin or LFC (50 μl) were added to 50 μl of each antibiotic dilution and serially diluted starting at the left (lower dilution) to the right. After inoculation, the final concentration of antibiotic from top to bottom were 32 to 8, 2 to 0.5, 0.5 to 0.125 μg/ml for penicillin, cefazolin and neomycin, respectively. From left to right, the concentration of LF or LFC were 25 to 0.0244 mg/ml or 256 to 0.5 μg/ml respectively in a final volume of 100 μl/well. The microplate's were incubated at 37° C. for 24 h. Bacterial growth was measured optically at 540 nm using Spectra Max 250 Microplate Spectrophotometer System of Molecular Device (Fisher Scientific, Ottawa, Canada). Tubes were incubated at 37° C. for 18 h and bacterial growth was measured by visual examination and optically at 540 nm using a spectrophotometer (Philips PU 8800; Pye Unican Ltd, Cambridge, UK). The fractional inhibitory concentration (FIC) was calculated as described by Eliopoulos and Moellering (1991).

S. aureus FAR 10 = assay type: cell-based; settings: Staphylococcus aureus, strain β-lactamase +D, read-out: MICs of penicillin G
Text: as §1, §2

S. aureus FAR 8 = assay type: cell-based; settings: Staphylococcus aureus, strain β-lactamase +D, read-out: MICs of penicillin G
Text: as §1, §2

S. aureus NCTC = assay type: cell-based; settings: Staphylococcus aureus, strain β-lactamase +A
Text: as §1, §2

S. aureus PC-1 = assay type: cell-based; settings: Staphylococcus aureus, strain β-lactamase +A constitutive
Text: as §1, §2

S. aureus SHY97-3906 = assay type: cell-based; settings: Staphylococcus aureus, strain β-lactamase + uncharacterised, read-out: MICs of penicillin G
Text: as §1, §2

S. aureus SHY97-3923 = assay type: cell-based; settings: Staphylococcus aureus, strain β-lactamase type −, read-out: MICs of penicillin G
Text: as §1, §2

S. aureus SHY97-4320 = assay type: cell-based; settings: Staphylococcus aureus, strain β-lactamase + uncharacterised, read-out: MICs of penicillin G
Text: as §1, §2

S. aureus ST79/41 = assay type: cell-based; settings: Staphylococcus aureus, strain β-lactamase +B, read-out: MICs of penicillin G
Text: as §1, §2

S. aureus 3804^f = assay type: cell-based, Staphylococcus aureus; settings: strain β-lactamase +C; for MIC: Staphylococcus aureus
Text: as §1, §2

[1] = read-out: MICs of penicillin G, Alone

Work on `CC1(C)S[C@@H]2[C@H](NC(=O)Cc3ccccc3)C(=O)N2[C@H]1C(=O)O` [penicillin G, Penicillin G] yielded an MIC (S. aureus ATCC 25923; ATCC25923, +0.5 mg/ml LF) of 0.031 µg/mL, an MIC (S. aureus ATCC 25923; ATCC25923, +1 mg/ml LF) of 0.015 µg/mL and an MIC (S. aureus ATCC 25923; ATCC25923, Alone) of 0.031 µg/mL. For the same compound, the MIC (S. aureus FAR 10; FAR10, +0.5 mg/ml LF) was 1 µg/mL, the MIC (S. aureus FAR 10; FAR10, +1 mg/ml LF) was 1 µg/mL and the MIC (S. aureus FAR 10; FAR10, Alone) was 2 µg/mL. The MIC (S. aureus FAR 8; FAR8, +0.5 mg/ml LF) was 8 µg/mL, the MIC (S. aureus FAR 8; FAR8, +1 mg/ml LF) was 8 µg/mL and the MIC (S. aureus FAR 8; FAR8, Alone) was 16 µg/mL. For the same compound, the MIC (S. aureus NCTC; read-out: MICs of penicillin G, +0.5 mg/ml LF) was 128 µg/mL, the MIC (S. aureus NCTC; read-out: MICs of penicillin G, +1 mg/ml LF) was 128 µg/mL and the MIC (S. aureus NCTC; [1]) was > 128 µg/mL. For the same compound, the MIC (S. aureus PC-1; PC1, read-out: MICs of penicillin G, +0.5 mg/ml LF) was 128 µg/mL, the MIC (S. aureus PC-1; PC1, read-out: MICs of penicillin G, +1 mg/ml LF) was 128 µg/mL and the MIC (S. aureus PC-1; PC1, read-out: MICs of penicillin G, Alone) was > 128 µg/mL. The MIC (S. aureus SHY97-3906; SHY973906, +0.5 mg/ml LF) was 0.5 µg/mL, the MIC (S. aureus SHY97-3906; SHY973906, +1 mg/ml LF) was 0.25 µg/mL and the MIC (S. aureus SHY97-3906; SHY973906, Alone) was 0.5 µg/mL. It also gave an MIC (S. aureus SHY97-3923; SHY973923, +0.5 mg/ml LF) of 0.007 µg/mL, an MIC (S. aureus SHY97-3923; SHY973923, +1 mg/ml LF) of 0.007 µg/mL and an MIC (S. aureus SHY97-3923; SHY973923, Alone) of 0.015 µg/mL. The MIC (S. aureus SHY97-4320; SHY974320, +0.5 mg/ml LF) was 32 µg/mL, the MIC (S. aureus SHY97-4320; SHY974320, +1 mg/ml LF) was 32 µg/mL and the MIC (S. aureus SHY97-4320; SHY974320, Alone) was 64 µg/mL. For the same compound, the MIC (S. aureus ST79/41; ST79/41, +0.5 mg/ml LF) was 16 µg/mL, the MIC (S. aureus ST79/41; ST79/41, +1 mg/ml LF) was 16 µg/mL and the MIC (S. aureus ST79/41; ST79/41, Alone) was 32 µg/mL. The “MICs of penicillin G” value (S. aureus 3804^f; +1 mg/ml LF) was 64 µg/mL, the MIC (S. aureus 3804^f; [1]) was 128 µg/mL and the MIC (S. aureus 3804^f; +0.5 mg/ml LF, read-out: MICs of penicillin G) was 64 µg/mL.
